The record followed here is US20260102407A1, “TREATMENT METHODS” (priority 2020, published 2026).

The structures appear in SMILES notation.

One experiment has as its system VCAM-1. Description: Immunohistochemical staining of rat retina, VCAM-1. Type of experiment: in vivo. The note with it: lasered rat retinas. The source says:
Rat choroidal laser injury model. Male Brown Norway pigmented rats (8-14 week-old) were anesthetized by an intramuscular injection of Rompun® (xylazine)/Imalgene® (ketamine). Pupils were dilated by instillation of one drop of 0.5% tropicamide before laser burn. Six burns were created in both eyes on Day 0 by applying 170 mW of 532 nm laser light (Viridis laser, Quantel, France) on 75 μm spots around the optic nerve, between the main retinal vessel branches, for 0.1s, through the slit lamp and contact lens. Production of a bubble at the time of laser application confirmed the rupture of Bruch's membrane. […] After anaesthesia, 10% sodium fluorescein (250 μl/100 g body weight) was injected subcutaneously, and ocular fluorescence was recorded 10 min after dye injection. Fluorescein leakage was evaluated on Days 14 and 21 in the angiograms by two examiners masked to the study groups and graded for fluorescein intensity as follows: score 0: no leakage; 1: slightly stained; 2: moderately stained; 3: strongly stained.
Immunohistochemical staining of rat retina. […] IOD of positive staining (red chromogen) was assessed for CD31, VEGF-A165, pERK, FosB and VCAM-1 using Image-Pro Plus software (Cybernetics, Bethesda, MD). IOD in IPL and INL was quantified for CD31; OPL to OS for VEGF-A165; INL to ONL for pERK; GCL to OS for FosB; OLM for VCAM-1, using Image-Pro Plus. […]

Experiment [1] deals with THP-1 transendothelial migration. Description: Monocyte-transendothelial migration assay toward MCP-1. Format: cell-based, human. The note with it: HMEC; 20 ng/ml IL-1β; 24 h. On the procedure:
Monocyte-transendothelial migration assay. Millicell 8 μm polycarbonated culture plate inserts (Millipore) were coated with 0.1% porcine gelatin type A (Sigma) and then placed into 24-well plates. HMEC (5×10^4 cells/well) were seeded onto the insert and allowed to adhere overnight. Cells were then serum deprived for 24 h and treated with various compound treatments for 1 h. IL-1β (20 ng/ml) was added to stimulate the cells for 4 h and 500 μl of serum-free medium was added to the bottom of the 24-well plate along with the compound. THP-1 (5×10^5 cells in 100 μl) were added into the insert and 100 ng/ml MCP-1 (Sigma) was added to the lower well. After 24 h, the number of cells that had migrated though the endothelial layer was assessed by counting 100 μl of the suspension in the lower chamber using a Coulter cell counter (Beckman Coulter).

Another experiment concerns p-SAPK/JNK. The experiment in a line: Western blot, IL-1β-inducible p-SAPK/JNK in HMEC-1. Type of experiment: cell-based, human. The conditions noted are these: 1-30 μM. On the procedure: Western blot analysis with extracts of cells treated with IL-13. HMEC-1 (80-90% confluency) were arrested in serum-free MCDB131 medium (Invitrogen, MD) without any growth factor for 48 h. Cells were treated with 30 μM compound in serum-free medium for 4 h, and incubated with 20 ng/ml IL-1β (Sigma, cat. SRE3083) in serum-free medium with the same concentration of compound for up to 4 h, unless otherwise indicated. Total protein was harvested as previously described using RIPA buffer with protease inhibitors. Proteins were resolved on 4-20% (w/v) SDS-polyacrylamide gradient gels and transferred to Immobilon-P PVDF membranes. […] Chemiluminescence was detected using the Western Lightning Chemiluminescence system and ImageQuant™ LAS 4000 biomolecular imager. Band intensity in images generated with the LAS 4000 using the same settings were quantified by NIH ImageJ.
Background: In western blotting, separated proteins are transferred to a membrane and probed.

In the case of `CCOC(=O)Nc1ccc2c(c1)C(=O)N(CC)c1ccccc1O2` [BT2, (10-ethyl-11-oxo-10,11-dihydro-dibenzo[b,f][1,4]oxazepin-2-yl)-carbamic acid ethyl ester], the “inducible VCAM-1 expression in the OLM” value with VCAM-1 is listed as “reduced inducible VCAM-1 expression”. In experiment [1], the “transendothelial migration of THP-1 monocytes toward MCP-1” value was “inhibits the transendothelial migration”. In addition, in the experiment on p-SAPK/JNK, the “IL-1β-inducible p-SAPK/JNK” value is recorded as “no effect”.
